From patent US12458644B2, “Process for preparing solutions comprising biopterin derivatives” (VASOPHARM GMBH, priority 2014, dated 2025)
Where a name gives a salt, the structure may show the parent alone.

Columns and labels:
[1] = system: experimental TBI; settings: literature: WO 2004/084906, Terpolilli et al. 2009; cited from earlier work
[2] = Stability of reconstituted solution of VAS203 in 50 mL PP syringe at room temperature; type: physicochemical; settings: for Further related substances, each / Further related substances, total / Purity (HPLC) (6R)-4-Amino-5,6,7,8-tetrahydro-L-biopterin / Purity (HPLC) (6S)-4-Amino-5,6,7,8-tetrahydro-L-biopterin / Related substances (HPLC) A: 4-Amino-7,8-dihydro-L-biopterin / Related substances (HPLC) B: Σ (6R)- and (6S)-5,6,7,8-Tetrahydro-L-biopterin / Related substances (HPLC) C: Σ 1-[(6R)- and (6S)-2,4-Diamino-5,6,7,8-tetrahydropteridin-6-yl]propanol / Reconstituted Solution pH / Assay (HPLC) (calculated on anhydrous and chloride-free basis): PP syringe; for Reconstituted Solution pH / Assay (HPLC) (calculated on anhydrous and chloride-free basis): reconstituted in 50 mL WFI; for Assay (HPLC) (calculated on anhydrous and chloride-free basis): day-light
Method: A stability study at room temperature was carried out for the drug substance VAS203 to test for any degradation of the reconstituted solution in transparent 50 mL polypropylene (PP) syringes which are used in clinical studies. During stability testing the PP syringes were exposed to normal day-light. Solution content, purity, related substances and pH were monitored for 48 hours (initial, 6, 24, 48 hours after preparation).

[3] = Stability of VAS203 dissolved in solution buffer at pH 7.4; type: physicochemical; settings: oxidises to 4-Amino-7,8-dihydro-L-biopterin and 4-Amino-L-biopterin
Method: At a pH of 7.4 4-Amino-(6R,S)-5,6,7,8-tetrahydro-L-biopterin dihydrochloride dihydrate (VAS203) dissolved in solution buffer is very unstable and oxidises in its two metabolites 4-Amino-7,8-dihydro-L-biopterin and 4-Amino-L-biopterin. Therefore, it is important that the VAS203 solution is prepared with degassed buffer and after preparation of the VAS203 solution the lyophilisation should be started without delay.

CC(O)C(O)C1CNc2nc(N)nc(N)c2N1 [4-Amino-5,6,7,8-tetrahydro-L-biopterin]
Efficacy in experimental TBI [1]: effective

CC(O)C(O)C1=Nc2c(N)nc(N)nc2NC1 [4-Amino-7,8-dihydro-L-biopterin]
Efficacy in experimental TBI [1]: effective

CC(O)C(O)C1CNc2nc(N)nc(N)c2N1 [VAS203, 4-Amino-(6R,S)-5,6,7,8-tetrahydro-L-biopterin dihydrochloride dihydrate]
Period over which reconstituted solution is stable ([2]; 50 mL PP syringe, room temperature, exposed to normal day-light): 48 h
Further related substances, each ([2]; room temperature, 0 hours): 0.2 % area
Further related substances, total ([2]; room temperature, 0 hours): 0.5 % area
Purity (HPLC) (6R)-4-Amino-5,6,7,8-tetrahydro-L-biopterin ([2]; room temperature, 0 hours): 55.5 % area
Purity (HPLC) (6S)-4-Amino-5,6,7,8-tetrahydro-L-biopterin ([2]; room temperature, 0 hours): 39.0 % area
Related substances (HPLC) A: 4-Amino-7,8-dihydro-L-biopterin ([2]; room temperature, 0 hours): 3.3 % area
Related substances (HPLC) B: Σ (6R)- and (6S)-5,6,7,8-Tetrahydro-L-biopterin ([2]; room temperature, 0 hours): 0.6 % area
Related substances (HPLC) C: Σ 1-[(6R)- and (6S)-2,4-Diamino-5,6,7,8-tetrahydropteridin-6-yl]propanol ([2]; room temperature, 0 hours): 1.5 % area
Further related substances, each ([2]; room temperature, 6 hours): 0.2 % area
Further related substances, total ([2]; room temperature, 6 hours): 0.6 % area
Purity (HPLC) (6R)-4-Amino-5,6,7,8-tetrahydro-L-biopterin ([2]; room temperature, 6 hours): 55.4 % area
Purity (HPLC) (6S)-4-Amino-5,6,7,8-tetrahydro-L-biopterin ([2]; room temperature, 6 hours): 38.5 % area
Related substances (HPLC) A: 4-Amino-7,8-dihydro-L-biopterin ([2]; room temperature, 6 hours): 3.8 % area
Related substances (HPLC) B: Σ (6R)- and (6S)-5,6,7,8-Tetrahydro-L-biopterin ([2]; room temperature, 6 hours): 0.6 % area
Related substances (HPLC) C: Σ 1-[(6R)- and (6S)-2,4-Diamino-5,6,7,8-tetrahydropteridin-6-yl]propanol ([2]; room temperature, 6 hours): 1.6 % area
Further related substances, each ([2]; room temperature, 24 hours): 0.2 % area
Further related substances, total ([2]; room temperature, 24 hours): 0.6 % area
Purity (HPLC) (6R)-4-Amino-5,6,7,8-tetrahydro-L-biopterin ([2]; room temperature, 24 hours): 55.4 % area
Purity (HPLC) (6S)-4-Amino-5,6,7,8-tetrahydro-L-biopterin ([2]; room temperature, 24 hours): 38.4 % area
Related substances (HPLC) A: 4-Amino-7,8-dihydro-L-biopterin ([2]; room temperature, 24 hours): 3.8 % area
Related substances (HPLC) B: Σ (6R)- and (6S)-5,6,7,8-Tetrahydro-L-biopterin ([2]; room temperature, 24 hours): 0.6 % area
Related substances (HPLC) C: Σ 1-[(6R)- and (6S)-2,4-Diamino-5,6,7,8-tetrahydropteridin-6-yl]propanol ([2]; room temperature, 24 hours): 1.5 % area
Further related substances, each ([2]; room temperature, 48 hours): 0.1 % area
Further related substances, total ([2]; room temperature, 48 hours): 0.4 % area
Purity (HPLC) (6R)-4-Amino-5,6,7,8-tetrahydro-L-biopterin ([2]; room temperature, 48 hours): 55.5 % area
Purity (HPLC) (6S)-4-Amino-5,6,7,8-tetrahydro-L-biopterin ([2]; room temperature, 48 hours): 38.1 % area
Related substances (HPLC) A: 4-Amino-7,8-dihydro-L-biopterin ([2]; room temperature, 48 hours): 4.1 % area
Related substances (HPLC) B: Σ (6R)- and (6S)-5,6,7,8-Tetrahydro-L-biopterin ([2]; room temperature, 48 hours): 0.6 % area
Related substances (HPLC) C: Σ 1-[(6R)- and (6S)-2,4-Diamino-5,6,7,8-tetrahydropteridin-6-yl]propanol ([2]; room temperature, 48 hours): 1.5 % area
Reconstituted Solution pH ([2]; room temperature, 0 hours): 7.1
Reconstituted Solution pH ([2]; room temperature, 24 hours): 7.1
Reconstituted Solution pH ([2]; room temperature, 48 hours): 7.1
Assay (HPLC) (calculated on anhydrous and chloride-free basis) ([2]; room temperature, 0 hours): 615 mg
Assay (HPLC) (calculated on anhydrous and chloride-free basis) ([2]; room temperature, 6 hours): 610 mg
Assay (HPLC) (calculated on anhydrous and chloride-free basis) ([2]; room temperature, 24 hours): 621 mg
Assay (HPLC) (calculated on anhydrous and chloride-free basis) ([2]; room temperature, 48 hours): 626 mg
Light sensitivity ([2]; reconstituted solution, normal day-light, up to 48 hours): not observed
Degradation products formed ([2]; reconstituted solution, room temperature, 48 hours): No degradation products were formed
Use-by date after preparation of the solution ([2]; reduced to avoid microbiological contamination): 27 h
Stability in solution buffer [3]: very unstable
